Results on 4 compounds are retold here after patent publication US8664246B2, “Substituted pyridines, and use thereof as GSK3 inhibitors” (Bayer Intellectual Property GmbH, priority 2008, dated 2014).

Each structure is given as a SMILES string.

The experiment deals with T1, GSK3β (Homo sapiens, UniProt P49841).
T1 construct: purchased Upstate 14-306
Description: In vitro biochemical GSK3β inhibition assay (pyruvate kinase/lactate dehydrogenase-coupled, NADH fluorescence). Conditions: 5 nM GSK3β, 40 μM GSK3β substrate GSM, 50 μM ATP, 30° C. for 2 hours. On the procedure:
The inhibitory activity of active substances is determined in a biochemical assay. The ingredients required for this purpose are mixed in a black 384-well microtitre plate with transparent base (from Greiner, catalogue number 781092). The ingredients required for each well of the 384-well microtitre plate are 5 nM GSK3β (from Upstate, catalogue number 14-306), 40 μM GSK3β substrate GSM (sequence H-RRRPASVPPSPSLSRHS-(pS)-HQRR, from Upstate, catalogue number 2-533), 30 μM nicotinamide adenine dinucleotide NADH (Roche Diagnostics, catalogue number 10107735), 50 μM adenosine triphosphate ATP (from Sigma, catalogue number A7966), 2 mM phosphoenolpyruvate (from Roche, catalogue number 128112), and approx. 1 U/ml pyruvate kinase and approx. 1 U/ml lactate dehydrogenase, which are present together in a stock formulation (from Roche, catalogue number 10737291001, suspension with approx. 450 U/ml pyruvate kinase activity, approx. 450 U/ml lactate dehydrogenase activity in […] ammonium sulphate solution pH 6). 1 unit of pyruvate kinase converts 1 μmol of phosphoenolpyruvate to pyruvate per minute at pH 7.6 and 37° C., and 1 unit of lactate dehydrogenase reduces 1 μmol of pyruvate to lactate per minute at pH 7.5 and 37° C. The reaction buffer required, in which the biochemical reaction proceeds, consists of 50 mM Trizma hydrochloride Tris-HCl pH: 7.5 (from Sigma, catalogue number T3253), 5 mM magnesium chloride MgCl2 (from Sigma, catalogue number M8266), 0.2 mM DL-dithiothreitol DTT (from Sigma, catalogue number D9779), 2 mM ethylenediamine ether tetraacid EDTA (from Sigma, catalogue number E6758), 0.01% Triton X-100 (from Sigma, catalogue number T8787) and 0.05% bovine serum albumin BSA (from Sigma, catalogue number B4287).
Active substances are dissolved in dimethyl sulphoxide DMSO (from Sigma, catalogue number D8418) in a concentration of 10 mM. Active substances are added in serial concentrations of 10 μM, 1 μM, 0.1 μM, 0.01 μM, 0.001 μM, 0.0001 μM, 0.00001 μM, 0.000001 μM to the mixtures of the biochemical reaction. As control, dimethyl sulphoxide is added instead of substance in a final concentration of 0.1%.
The reaction is incubated at 30° C. for 2 hours and then the resulting fluorescence is measured in a Tecan Safire-XFLUOR4 instrument, version V4.50 (serial number 12901300283) with the specifications: measurement mode—fluorescence measured from below, excitation wavelength 340 nm, emission wavelength 465 nm, excitation slit width 5 nm, emission slit width 5 nm, gain mode 120, delay 0 μs, number of light flashes per measurement 3, and an integration time of 40 μs.
The activity of the active substances is calculated in relation to these 0% and 100%.

T1 sequence (P49841 whole entry): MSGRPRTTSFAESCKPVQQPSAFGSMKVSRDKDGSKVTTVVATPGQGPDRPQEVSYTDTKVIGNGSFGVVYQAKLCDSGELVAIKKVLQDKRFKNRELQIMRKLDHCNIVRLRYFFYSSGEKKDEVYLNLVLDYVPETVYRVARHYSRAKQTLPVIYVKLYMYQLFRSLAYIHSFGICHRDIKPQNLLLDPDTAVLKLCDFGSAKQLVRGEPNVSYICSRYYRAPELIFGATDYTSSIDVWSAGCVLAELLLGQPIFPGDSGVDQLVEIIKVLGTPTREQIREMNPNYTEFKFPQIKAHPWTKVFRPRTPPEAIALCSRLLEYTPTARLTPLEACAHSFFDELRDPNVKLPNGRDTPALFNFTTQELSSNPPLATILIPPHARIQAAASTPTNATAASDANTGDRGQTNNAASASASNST

In general, IC50 refers to the concentration that inhibits the measured activity by half. In turn, `N#Cc1ccc(-c2ccc(Cl)cc2Cl)nc1N1CCCC(Nc2ccc(C(=O)C(F)(F)F)c(N)n2)C1` (single isomer, unassigned) [Example Ent-B-2, 2-(3-{[6-amino-5-(trifluoroacetyl)pyridin-2-yl]amino}piperidin-1-yl)-6-(2,4-dichlorophenyl)pyridine-3-carbonitrile] gave an IC50 of 5.04 nM.

`COc1ccccc1-c1ccc(C(=O)N2CCN(C(C)C)CC2)c(N2CCCC(Nc3ccc(C(=O)C(F)(F)F)c(N)n3)C2)n1` (single isomer, unassigned) [Example Ent-B-12, 1-[2-amino-6-({1-[6-(2-methoxyphenyl)-3-{[4-(propan-2-yl)-piperazin-1-yl]carbonyl}pyridin-2-yl]piperidin-3-yl}amino)pyridin-3-yl]-2,2,2-trifluoroethanone] displayed an IC50 of 6.3 nM.

`N#Cc1ccc(NC2CCCN(c3nc(-c4ccc(Cl)cc4Cl)ccc3C#N)C2)nc1N` (stereo not shown) [Example 6, 2-Amino-6-({1-[3-cyano-6-(2,4-dichlorophenyl)pyridin-2-yl]piperidin-3-yl}amino)-pyridine-3-carbonitrile] registered an IC50 of 26 nM.

With `N#Cc1ccc(NC2CCCN(c3nc(-c4ccc(Cl)cc4Cl)ccc3C#N)C2)nc1` (stereo not shown) [Example 7, 2-{3-[(5-Cyanopyridin-2-yl)amino]piperidin-1-yl}-6-(2,4-dichlorophenyl)pyridine-3-carbonitrile], the IC50 was found to be 12 nM.
